Test results taken from patent US20170021042A1, “Flow-Through Pathogen Reduction” (Terumo BCT Biotechnologies, LLC, priority 2015, published 2017).
Marks after values point to notes of the source that are not given here.

Legend:
PhiX174 [1] = test: PhiX174 reduction in whole blood with riboflavin, UV-illuminated flow-through flow cells
From the text: This study is designed to obtain insight into the correlation between flow rate, channel thickness and pathogen reduction of whole blood. The flow cells in this study have thin channels and different flow configurations. Thin channels are used because whole blood is less transmissive than plasma.
(§1) The flow cell mounts in a fixture (e.g. a flow cell holder) which maintains channel thickness by applying pressure from both the top and bottom. The fixture houses eight illumination lamps driven at 800 mA with four on top and four on bottom producing an irradiance of 4.5 mW/cm^2. Product can be flowed through the flow-cell, which is mounted adjacent to the light source, and then samples can be taken on the back end.
A peristaltic pump to control flow rate is used with the pump will located after the flow cell so that negative pressure is applied to the flow cell by the pump instead of positive pressure. The pump is calibrated prior to use to ensure flow rate accuracy.
Two flow cell configurations being tested may be referred to as “8p” and “4s×2p”. The 8p configuration has all the channels in parallel; therefore the fluid crosses one channel before exiting the flow cell. The 4s×2p configuration requires the fluid to cross four channels in series before exiting the flow cell. […]

PhiX174 [2] = test: PhiX174 reduction in plasma with riboflavin, UV-illuminated flow-through flow cells; conditions: for pathogen reduction (log reduction of PhiX174): plasma + riboflavin, irradiance 4.5 mW/cm2
From the text: The goal of this study is to obtain insight into the correlation between flow rate, channel thickness and pathogen reduction. The flow cells in this study have a relatively thicker channel and different flow configurations.
as §1, with “fixture (e.g.,” for “fixture (e.g. a”, “4.5 mW/cm2.” for “4.5 mW/cm^2.”, “samples are” for “samples can be”
The increased channel thickness results in decreased fluidic impedance requiring the use of a peristaltic pump to control flow rate instead of by gravity. The pump is calibrated prior to use to ensure flow rate accuracy.
1.5.5. Submit one sample tube for each sample for viral titer and save the other two samples for later analysis.
Below are the pathogen reduction results. In Table 6, cells with bold text indicate a sample that is within the limit of detection and cells with an asterisk indicate a sample that has six or less PhiX174 colonies at a one log dilution and is outside the limit of detection. Cells with underlined text indicate a sample is technically outside the limit of detection but has PhiX174 colonies allowing for the inferred calculation of pathogen reduction. Each cell also has dwell time in seconds and predicted dose. The lower predicted dose value takes into account the transmissivity of the plasma and flow cell. The higher predicted dose assumes that all light incident on the flow cell is absorbed by the plasma.

Cc1cc2nc3c(=O)[nH]c(=O)nc-3n(C[C@H](O)[C@H](O)[C@H](O)CO)c2cc1C [riboflavin]
hemolysis, difference from hold control (whole blood): ≤ 0.06 % hemolysis | pathogen reduction, in words (PhiX174 [1]): within the acceptable pathogen reduction range | pathogen reduction (log reduction of PhiX174) (PhiX174 [2]; flow cell A, gap 3/1000" (0.0762 mm), flow rate 20 ml/min, dwell 2.9 sec): (~3.4 logs)* | pathogen reduction (log reduction of PhiX174) (PhiX174 [2]; flow cell A, gap 3/1000" (0.0762 mm), flow rate 40 ml/min, dwell 1.5 sec): (2.8 logs)* | pathogen reduction (log reduction of PhiX174) (PhiX174 [2]; flow cell B, gap 5/1000" (0.127 mm), flow rate 20 ml/min, dwell 4.9 sec): (~3.6 logs)* | pathogen reduction (log reduction of PhiX174) (PhiX174 [2]; flow cell B, gap 5/1000" (0.127 mm), flow rate 40 ml/min, dwell 2.43 sec): (2.6 logs)* | pathogen reduction (log reduction of PhiX174) (PhiX174 [2]; flow cell C, gap 12/1000" (0.305 mm), flow rate 40 ml/min, dwell 5.8 sec): (~3.9 logs)* | pathogen reduction (log reduction of PhiX174) (PhiX174 [2]; flow cell C, gap 12/1000" (0.305 mm), flow rate 80 ml/min, dwell 2.9 sec): (2.5 logs)* | pathogen reduction (log reduction of PhiX174) (PhiX174 [2]; flow cell D, gap 20/1000" (0.508 mm), flow rate 80 ml/min, dwell 4.7 sec): (2.9 logs)* | pathogen reduction, in words (PhiX174 [2]; plasma and riboflavin, all flow cells A-D): adequate pathogen reduction
